Source: the supplement of paper PMC10307832

Legend:
Assay in all cases: relative viability (nuclei count vs DMSO), 5 days (fraction); higher = more cells survive
MK-2206 = compound: NC1(c2ccc(-c3nc4ccn5c(=O)[nH]nc5c4cc3-c3ccccc3)cc2)CCC1 [MK-2206]
How it was run: (§1)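 Only plates meeting two conditions passed: control CV below 25% and at least one doubling. Lung cancer cell lines, kept overnight at 37 °C in 1536-well plates, were pinned with five library-drug doses (not always all listed) √10 apart on vehicle-anchored plates and grown 5 days without medium change. A one-step fix, permeabilisation and Hoechst stain preceded 4× imaging and MetaXpress nuclear counting. Viability equals treated-well nuclei divided by vehicle-well nuclei, as the median over plates.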

Pictilisib = compound: CS(=O)(=O)N1CCN(Cc2cc3nc(-c4cccc5[nH]ncc45)nc(N4CCOCC4)c3s2)CC1 [Pictilisib]
How it was run: as §1

MK-2206 + Navitoclax = compound: NC1(c2ccc(-c3nc4ccn5c(=O)[nH]nc5c4cc3-c3ccccc3)cc2)CCC1 [MK-2206] + CC1(C)CCC(c2ccc(Cl)cc2)=C(CN2CCN(c3ccc(C(=O)NS(=O)(=O)c4ccc(N[C@H](CCN5CCOCC5)CSc5ccccc5)c(S(=O)(=O)C(F)(F)F)c4)cc3)CC2)C1 [Navitoclax] (partner 0.5 µM)
How it was run: (§2)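 Five library-drug doses in √10 steps were combined with a fixed anchor-drug dose, or a single drug was given alone, by pin tool to lung cancer cell lines in 1536-well plates the day after seeding. Nuclei were stained and counted after 5 days. Relative viability is the nuclei count in treated wells over that in vehicle wells, taken as the median of duplicate plates.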

Pictilisib + Alpelisib = compound: CS(=O)(=O)N1CCN(Cc2cc3nc(-c4cccc5[nH]ncc45)nc(N4CCOCC4)c3s2)CC1 [Pictilisib] + Cc1nc(NC(=O)N2CCC[C@H]2C(N)=O)sc1-c1ccnc(C(C)(C)C(F)(F)F)c1 [Alpelisib] (partner 2 µM)
How it was run: as §2

**Q.** UMC-11 was tested. Which relative viability (MK-2206; 0.01 µM) did it give?
**A.** The relative viability was 0.94.

**Q.** What about the relative viability (MK-2206; 0.03162 µM) of the same cell line?
**A.** Its relative viability is 1.02.

**Q.** And the relative viability (MK-2206; 0.3162 µM)?
**A.** Its relative viability is 1.07.

**Q.** What about the relative viability (MK-2206; 1 µM) of the same cell line?
**A.** Its relative viability is 0.937.

**Q.** What about the relative viability (Pictilisib; 0.02 µM) of the same cell line?
**A.** The relative viability was 0.989.

**Q.** What about the relative viability (Pictilisib; 0.06325 µM) of the same cell line?
**A.** Its relative viability is 1.14.

**Q.** What about the relative viability (Pictilisib; 0.6325 µM) of the same cell line?
**A.** The relative viability was 1.07.

**Q.** What about the relative viability (Pictilisib; 1 µM, anchor plate) of the same cell line?
**A.** Its relative viability is 0.846.

**Q.** What about the relative viability (Pictilisib; 2 µM) of the same cell line?
**A.** Its relative viability is 0.937.

**Q.** And the relative viability (MK-2206 + Navitoclax; first compound 0.01 µM)?
**A.** Its relative viability is 0.309.

**Q.** And the relative viability (MK-2206 + Navitoclax; first compound 0.03162 µM)?
**A.** The relative viability was 0.327.

**Q.** What about the relative viability (MK-2206 + Navitoclax; first compound 0.3162 µM) of the same cell line?
**A.** Its relative viability is 0.344.

**Q.** What about the relative viability (MK-2206 + Navitoclax; first compound 1 µM) of the same cell line?
**A.** The relative viability was 0.29.

**Q.** What about the relative viability (Pictilisib + Alpelisib; first compound 0.02 µM) of the same cell line?
**A.** The relative viability was 0.942.

**Q.** And the relative viability (Pictilisib + Alpelisib; first compound 0.06325 µM)?
**A.** Its relative viability is 1.05.

**Q.** What about the relative viability (Pictilisib + Alpelisib; first compound 0.6325 µM) of the same cell line?
**A.** Its relative viability is 1.14.

**Q.** What about the relative viability (Pictilisib + Alpelisib; first compound 2 µM) of the same cell line?
**A.** The relative viability was 1.17.
